Experimental data published in patent US20060233809A1, “Method for treating prostate conditions” (priority 2005, published 2006).
Where two headings read alike, the source gives them in different places.

Legend:
[1] = tested on: AR protein in RPE cells (BCRP-mediated transport); experiment: Immunocytochemical analysis of nuclear-localized AR protein in RPE cells; format: cell-based, rat; settings: 50 μmol/L novobiocin and/or 3 nmol/L dihydrotestosterone, 14 hours; immunocytochemistry, n>200 cells/group
[2] = limiting use in vivo; cited from earlier work
[3] = target: T1, BCRP (Rattus norvegicus, UniProt Q80W57); format: cell-based; settings: RPE cells
T1 construct: the Mx-RPE cells have a higher level of BCRP activity than RPE cells; endogenous in cells; host or cells: Mx-RPE (mitoxantrone-resistant subline of rat RPE cells)
T1 sequence (Q80W57 1-657): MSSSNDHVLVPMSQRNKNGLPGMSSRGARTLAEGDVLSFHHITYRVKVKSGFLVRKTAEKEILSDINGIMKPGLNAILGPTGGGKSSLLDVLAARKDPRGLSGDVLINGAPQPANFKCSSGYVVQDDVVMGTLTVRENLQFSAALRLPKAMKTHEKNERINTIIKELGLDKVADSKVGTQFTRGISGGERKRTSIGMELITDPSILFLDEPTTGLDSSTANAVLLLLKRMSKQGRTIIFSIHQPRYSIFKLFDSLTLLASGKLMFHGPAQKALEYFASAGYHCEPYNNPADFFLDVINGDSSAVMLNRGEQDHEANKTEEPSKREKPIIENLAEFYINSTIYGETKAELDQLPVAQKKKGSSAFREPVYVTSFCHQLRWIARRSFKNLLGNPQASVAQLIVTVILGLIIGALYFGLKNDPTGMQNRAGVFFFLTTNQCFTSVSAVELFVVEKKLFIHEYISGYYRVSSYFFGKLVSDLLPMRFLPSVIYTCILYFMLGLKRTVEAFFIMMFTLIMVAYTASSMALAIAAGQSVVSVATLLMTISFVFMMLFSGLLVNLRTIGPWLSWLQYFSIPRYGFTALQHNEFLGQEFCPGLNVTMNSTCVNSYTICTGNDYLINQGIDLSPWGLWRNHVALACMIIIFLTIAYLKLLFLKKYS
Excerpt: (§1) Data for Hoechst 33342 efflux represent two independent experiments (n>1,000 cells, *** P<0.0001).
(§2) Additionally, novobiocin and fumitremorgin C were compared in RPE cells as inhibitors of BCRP-mediated efflux of Hoechst 33342, the marker utilized to identify the side population phenotype of stem cells. Fumitremorgin C is a specific inhibitor for BCRP-mediated transport.

[4] = target: T1, BCRP; format: cell-based; settings: Mx-RPE cells
Excerpt: as §1
Rat prostate progenitor (stem cell-like) cell lines (RPE, DP2, DP3, and DP4) were established from regenerating prostates of Fischer-344 rats and were maintained in prostate growth media (Presnell et al., Prostate Cancer Prostatic Dis (1999); 2:257-63) supplemented with 2% fetal bovine serum (FBS; Hyclone, Logan, UT) without androgen supplementation. […] A subpopulation of RPE cells was selected for resistance to mitoxantrone (Mx-RPE) by continuous culture in increasing concentrations of mitoxantrone (0.2-4 μmol/L; Sigma).
Additionally, novobiocin and fumitremorgin C were compared in RPE cells as inhibitors of BCRP-mediated efflux of Hoechst 33342, the marker utilized to identify the side population phenotype of stem cells. Fumitremorgin C is a specific inhibitor for BCRP-mediated transport. […] The moderate increase in nuclear Hoechst 33342 dye in RPE cells with inhibited BCRP function reflects a combination of the limited dynamic range of digital imaging technology and the constitutive expression of MDR-1 in the RPE cells (data not shown) because MDR-1 also effectively transports Hoechst 33342 dye; however, novobiocin and fumitremorgin C inhibit only the BCRP-mediated component of Hoechst efflux, not MDR-1 function (Doyle et al., Oncogene (2003); 22:7340-58; Shiozawa et al., Int. J. Cancer (2004); 108:146-51).

[5] = cited from earlier work
[6] = tested on: DP3 cell line; experiment: Intracellular [3H]dihydrotestosterone accumulation in BCRP-lacking DP3 control cell line; format: cell-based, rat; settings: DP3 cell line (lacks BCRP)
Excerpt: as §2

[7] = tested on: TRAMP mice; experiment: Foci of SV40Tag+ cells in prostates of castrated TRAMP mice treated with novobiocin; format: in vivo, mouse; settings: novobiocin 25 mg/kg/5 times a week
Excerpt: In this model, the PB-SV40 large T antigen transgene (SV40Tag) is expressed specifically in the epithelial cells of the murine prostate. Cells expressing the SV40Tag transgene can be detected by immunohistological methods using labeled monoclonal antibodies to SV40Tag. Adenocarcinoma of the prostate in TRAMP mice arises as early as eight weeks of age and is characterized by tumor cells that uniformly express high levels of AR and that regress upon castration. In contrast, poorly differentiated neuroendocrine-like carcinomas in TRAMP mice are characterized by expression of the neuroendocrine marker synaptophysin, and an absence, or weak and heterogeneous expression of AR. Neuroendocrine-like carcinomas are rare in young TRAMP mice, but arise rapidly in mice that are castrated between 12 and 14 weeks of age (Kaplan-Lefko et al., Prostate (2003); 55:219-37; Johnson et al., Prostate (2005); 62:322-38).
Treatment of the TRAMP mice with novobiocin (25 mg/kg/5 times a week), or saline (physiologic saline/5 times a week), was initiated at 13 weeks of age and all mice were castrated at 14 weeks of age (1 week following initiation of treatment). TRAMP mice were treated until 19 weeks of age, at which time the prostates, lymph nodes, small intestine, and liver were harvested and processed for analysis using standard techniques. […]

[8] = tested on: AR protein in RPE cells (BCRP function); experiment: Immunoblot analysis of AR protein in RPE cell lysates; format: cell-based, rat; settings: 50 μmol/L novobiocin and/or 3 nmol/L dihydrotestosterone; normalized to actin

| SMILES | increase in the level of nuclear-localized AR in RPE cells [1] [fold] | neurotoxicity [2] | increase in nuclear Hoechst 33342 compared with the DMSO control ([3]; 10 μmol/L fumitremorgin C) [fold] | increase in intracellular levels of [3H]dihydrotestosterone ([4]; 10 μmol/L fumitremorgin C) [fold] | toxicity in humans [5] | effect on the level of accumulation of intracellular [3H]dihydrotestosterone [6] | establishment of recurrent growth in TRAMP [7] | #Foci/Animal, pattern: >10 cells Differentiated ([7]; 13 to 19 weeks of age) | increase of AR protein in RPE cells (immunoblot) [8] [fold] | increase in retention of Hoechst 33342 ([3]; 5 mmol/L novobiocin) [fold] | increase in retention of Hoechst 33342 ([3]; 10 mmol/L novobiocin) [fold] | increase in intracellular levels of [3H]dihydrotestosterone ([4]; 5 mmol/L novobiocin) [fold] | increase in intracellular levels of [3H]dihydrotestosterone ([4]; 10 mmol/L novobiocin) [fold] |
| --- | --- | --- | --- | --- | --- | --- | --- | --- | --- | --- | --- | --- | --- |
| C[C@]12CCC(=O)C[C@@H]1CC[C@@H]1[C@@H]2CC[C@]2(C)[C@@H](O)CC[C@@H]12 [dihydrotestosterone] | 2.8 |  |  |  |  |  |  |  |  |  |  |  |  |
| COc1ccc2c3c([nH]c2c1)[C@H](C=C(C)C)N1C(=O)[C@@H]2CCCN2C(=O)[C@@H]1C3 [fumitremorgin C] |  | extremely neurotoxic | 2.3 | 3.3 |  |  |  |  |  |  |  |  |  |
| CO[C@@H]1[C@@H](OC(N)=O)[C@@H](O)[C@H](Oc2ccc3c(O)c(NC(=O)c4ccc(O)c(CC=C(C)C)c4)c(=O)oc3c2C)OC1(C)C [novobiocin] | 2.4 |  |  |  | well tolerated toxicity in humans | no effect | inhibited establishment of recurrent growth | significant increase | 7 | 1.2 | 1.45 | 2.4 | 5.5 |
